Data reported in ChEMBL document CHEMBL1201862, “PubChem BioAssay data set” (2004).
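All cell lines were grown in 96-well plates and treated with compound for 48 hours. GI50 = concentration required for 50% inhibition of growth.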 Activity calls are given as the source filed them. No stated cut-off is given here; in the data, active = GI50 up to about 1.1 µM and inactive = higher.

Columns and labels:
Assay in all cases: inhibition of tumour cell growth, NCI panel, 48 h
A498 = tested on: A498
786-0 = tested on: 786-0
UACC-62 = tested on: UACC-62
PC-3 = tested on: PC-3
SK-MEL-5 = tested on: SK-MEL-5
HCC 2998 = tested on: HCC 2998
SK-MEL-2 = tested on: SK-MEL-2
DU-145 = tested on: DU-145
IGROV-1 = tested on: IGROV-1
HT-29 = tested on: HT-29
RPMI-8226 = tested on: RPMI-8226
U-251 = tested on: U-251
RXF 393 = tested on: RXF 393
MDA-MB-435 = tested on: MDA-MB-435
TK-10 = tested on: TK-10
ACHN = tested on: ACHN
NCI-H23 = tested on: NCI-H23
Malme-3M = tested on: Malme-3M
A549 = tested on: A549
NCI-H522 = tested on: NCI-H522

| Structure (SMILES) | GI50 (A498) | GI50 (786-0) | GI50 (UACC-62) | GI50 (PC-3) | GI50 (SK-MEL-5) | GI50 (HCC 2998) | GI50 (SK-MEL-2) | GI50 (DU-145) | GI50 (IGROV-1) | GI50 (HT-29) | GI50 (RPMI-8226) | GI50 (U-251) | GI50 (RXF 393) | GI50 (MDA-MB-435) | GI50 (TK-10) | GI50 (ACHN) | GI50 (NCI-H23) | GI50 (Malme-3M) | GI50 (A549) | GI50 (NCI-H522) |
| --- | --- | --- | --- | --- | --- | --- | --- | --- | --- | --- | --- | --- | --- | --- | --- | --- | --- | --- | --- | --- |
| O=C(NC1CCCCC1)c1cc2ccccc2cc1O | 25.4 µM (inactive) | 26.3 µM (inactive) | 27 µM (inactive) | 28.8 µM (inactive) | 19.6 µM (inactive) | 23.5 µM (inactive) | 23.3 µM (inactive) | 43.2 µM (inactive) | 35.5 µM (inactive) | 20.4 µM (inactive) | 17.7 µM (inactive) | 44.2 µM (inactive) | 30.5 µM (inactive) | 29.2 µM (inactive) | 73.3 µM (inactive) | – | – | – | – | – |
| COc1ccc(CC2C(=O)NC(C)C(=O)N(C)C3Cc4ccc(cc4)Oc4cc(ccc4O)CC(C(=O)NC(C)C(=O)NC(C)C(=O)N2C)N(C)C3=O)cc1 (stereo not drawn) | 0.0175 µM (active) | < 0.0001 µM (active) | 0.0175 µM (active) | < 0.0001 µM (active) | 0.0175 µM (active) | 0.0175 µM (active) | – | < 0.0001 µM (active) | 0.0175 µM (active) | 0.0355 µM (active) | 0.0175 µM (active) | 0.0175 µM (active) | 0.0175 µM (active) | < 0.0001 µM (active) | 0.0257 µM (active) | 0.0738 µM (active) | 0.0175 µM (active) | 0.0175 µM (active) | – | – |
| Cc1cc(S(=O)(=O)n2ccnc2O)c(SCCCN(C)C)cc1Cl | > 100 µM (inactive) | > 100 µM (inactive) | > 100 µM (inactive) | > 100 µM (inactive) | > 100 µM (inactive) | > 100 µM (inactive) | > 100 µM (inactive) | > 100 µM (inactive) | > 100 µM (inactive) | > 100 µM (inactive) | – | > 100 µM (inactive) | > 100 µM (inactive) | > 100 µM (inactive) | > 100 µM (inactive) | > 100 µM (inactive) | > 100 µM (inactive) | > 100 µM (inactive) | > 100 µM (inactive) | > 100 µM (inactive) |
| CC(=O)N1N=C(c2ccccc2Nc2ccccc2C2=NN(C(C)=O)C(c3ccccc3)O2)OC1c1ccccc1 (stereo not drawn) | – | > 100 µM (inactive) | 35 µM (inactive) | 10.4 µM (inactive) | 51.2 µM (inactive) | > 100 µM (inactive) | 73.3 µM (inactive) | > 100 µM (inactive) | > 100 µM (inactive) | 25.5 µM (inactive) | 25.3 µM (inactive) | 63.5 µM (inactive) | 46.8 µM (inactive) | 14.7 µM (inactive) | > 100 µM (inactive) | 86.5 µM (inactive) | 60.7 µM (inactive) | > 100 µM (inactive) | 17.4 µM (inactive) | 36.1 µM (inactive) |
| CN1C(NN)=NS(=O)(=O)c2ccccc21 | > 100 µM (inactive) | > 100 µM (inactive) | > 100 µM (inactive) | > 100 µM (inactive) | > 100 µM (inactive) | > 100 µM (inactive) | > 100 µM (inactive) | > 100 µM (inactive) | > 100 µM (inactive) | > 100 µM (inactive) | – | > 100 µM (inactive) | > 100 µM (inactive) | > 100 µM (inactive) | > 100 µM (inactive) | > 100 µM (inactive) | > 100 µM (inactive) | – | > 100 µM (inactive) | > 100 µM (inactive) |
| CC1(C)CC(=O)C2=C(C1)NC(=S)C(C#N)C2c1ccccc1 (stereo not drawn) | – | > 100 µM (inactive) | > 100 µM (inactive) | > 100 µM (inactive) | > 100 µM (inactive) | > 100 µM (inactive) | > 100 µM (inactive) | > 100 µM (inactive) | > 100 µM (inactive) | > 100 µM (inactive) | – | > 100 µM (inactive) | > 100 µM (inactive) | > 100 µM (inactive) | > 100 µM (inactive) | > 100 µM (inactive) | > 100 µM (inactive) | > 100 µM (inactive) | > 100 µM (inactive) | > 100 µM (inactive) |
| CCN(CC)/C(Cl)=C(Cl)\C(=C1\Nc2ccc(OC)cc21)[N+](=O)[O-] | > 100 µM (inactive) | 47.9 µM (inactive) | 88.5 µM (inactive) | 31.6 µM (inactive) | 28.6 µM (inactive) | > 100 µM (inactive) | – | 37.8 µM (inactive) | 88.1 µM (inactive) | 56.2 µM (inactive) | – | 37.5 µM (inactive) | 15.7 µM (inactive) | 37.2 µM (inactive) | 83.6 µM (inactive) | 98.2 µM (inactive) | 56.6 µM (inactive) | > 100 µM (inactive) | 58.9 µM (inactive) | 20.2 µM (inactive) |
| CC(C)(C)OC(=O)N1Cc2cc(O)ccc2C[C@H]1C(=O)O | > 100 µM (inactive) | > 100 µM (inactive) | > 100 µM (inactive) | > 100 µM (inactive) | > 100 µM (inactive) | > 100 µM (inactive) | > 100 µM (inactive) | > 100 µM (inactive) | > 100 µM (inactive) | > 100 µM (inactive) | – | > 100 µM (inactive) | > 100 µM (inactive) | > 100 µM (inactive) | > 100 µM (inactive) | > 100 µM (inactive) | > 100 µM (inactive) | > 100 µM (inactive) | > 100 µM (inactive) | > 100 µM (inactive) |
